Source: patent US20170037028A1 (BAYER PHARMA AKTIENGESELLSCHAFT, priority 2013, published 2017)

How the values were obtained:
Format in all cases: cell-based
GLUT2 = biological target: T1, GLUT2 (Homo sapiens, UniProt P11168); experiment: Indirect measurement of GLUT2 activity by quantification of intracellular ATP levels (fructose induced ATP increase); settings: 10 mM fructose, 1 μM Rotenone, 15 min; CellTiter-Glo ATP readout; read-out: IC50 regarding fructose induced ATP increase (GLUT2 inhibition)
T1 construct: host or cells: DLD1 or CHO-K1
T1 sequence (P11168 1-524): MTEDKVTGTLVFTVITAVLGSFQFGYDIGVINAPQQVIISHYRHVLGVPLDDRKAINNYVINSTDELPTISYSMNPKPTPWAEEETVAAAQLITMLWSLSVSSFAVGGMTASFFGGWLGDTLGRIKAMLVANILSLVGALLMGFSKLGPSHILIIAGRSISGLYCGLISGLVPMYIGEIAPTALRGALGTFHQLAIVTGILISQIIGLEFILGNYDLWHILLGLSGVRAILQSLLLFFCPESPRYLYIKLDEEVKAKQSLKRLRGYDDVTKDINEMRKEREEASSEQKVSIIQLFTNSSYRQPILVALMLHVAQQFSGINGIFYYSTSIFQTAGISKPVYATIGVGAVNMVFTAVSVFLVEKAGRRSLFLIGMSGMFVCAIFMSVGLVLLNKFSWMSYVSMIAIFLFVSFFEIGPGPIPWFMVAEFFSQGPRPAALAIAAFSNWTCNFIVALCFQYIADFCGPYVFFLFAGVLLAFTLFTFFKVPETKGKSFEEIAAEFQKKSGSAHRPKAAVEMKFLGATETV
Description: Indirect Measurement of GLUT1 and GLUT2 Activity by Quantification of Intracellular ATP Levels
It is well known that a combination of small-molecule inhibitors of mitochondrial electron transport chain and glucose catabolism synergistically suppress ATP production and impair cellular viability (Ulanovskaya et al., 2008, 2011; Liu, et al. 2001). We therefore used DLD1 or CHO-K1 cells in combination with an oxidative phosphorylation inhibitor to identify GLUT1 and GLUT2 inhibitors. Cell lines were maintained in DMEM medium supplemented with 10% FCS and 1% Penicillin-Streptomycin solution and 2% Glutamax. The cells were treated with trypsin and seeded into 384 plates at a density of 4000 cells/well. The cells were then cultured overnight in glucose free media containing 1% FCS to reduce intracellular ATP levels. […] The CellTiter-Glo® Luminescent Cell Viability Assay from Promega was then used to measure ATP Levels.

GLUT1 [1] = biological target: T2, GLUT1 (Homo sapiens, UniProt P11166); experiment: Indirect measurement of GLUT1 activity by quantification of intracellular ATP levels (glucose induced ATP increase); design: endogenous in cells; host or cells: DLD1 or CHO-K1; settings: read-out: IC50 regarding glucose induced ATP increase (GLUT1 inhibition)
T2 sequence (P11166 1-492): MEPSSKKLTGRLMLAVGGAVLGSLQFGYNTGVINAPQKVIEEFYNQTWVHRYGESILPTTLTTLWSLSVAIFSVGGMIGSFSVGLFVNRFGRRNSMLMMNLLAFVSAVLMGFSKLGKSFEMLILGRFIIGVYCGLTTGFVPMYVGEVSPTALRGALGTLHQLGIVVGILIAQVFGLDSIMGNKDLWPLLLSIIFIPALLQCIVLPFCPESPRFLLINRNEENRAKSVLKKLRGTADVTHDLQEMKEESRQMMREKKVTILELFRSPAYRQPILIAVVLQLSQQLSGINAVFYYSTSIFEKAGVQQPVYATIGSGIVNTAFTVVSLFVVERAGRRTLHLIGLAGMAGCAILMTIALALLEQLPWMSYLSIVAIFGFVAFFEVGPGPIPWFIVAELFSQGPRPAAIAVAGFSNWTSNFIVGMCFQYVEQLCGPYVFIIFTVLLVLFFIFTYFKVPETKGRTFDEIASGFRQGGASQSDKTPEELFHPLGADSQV
How it was run: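 DLD1 or CHO-K1 cells were starved overnight in glucose-free medium with 1% FCS, then combined with an oxidative phosphorylation inhibitor. GLUT1 activity was read as glucose-induced ATP increase, GLUT2 as fructose-induced. Intracellular ATP was quantified by CellTiter-Glo luminescence.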

GLUT1 [2] = biological target: T2, GLUT1; experiment: 2-deoxy-D-glucose (3H) uptake assay, GLUT1 inhibition in cell lines; settings: H460 cell line; 3H-2-deoxy-D-glucose uptake; read-out: IC50 regarding GLUT1 inhibition
Procedure: Cells (e.g. H460 or CHO-K1) were cultured under standard conditions. 10000 cells per well were seeded in clear 96 well tissue culture isoplate plates and cultured overnight (PerkinElmer, 1450-516) under standard conditions. Culture medium was removed and cells were washed two times with 100 μL KRP buffer and then incubated for 45 minutes at 37° C. (KRP buffer: 10 mM sodium hydrogen phosphate, 130 mM sodium chloride, 5 mM potassium chloride, 1.3 mM magnesium sulfate, 1.3 mM calcium chloride (pH 7.5), 50 mM HEPES (pH 7.5), 4.7 mM potassium chloride, 1.25 mM magnesium sulfate, 1.25 mM calcium chloride) each. KRP wash buffer was removed and compound 126 (diluted in KRP buffer) was added and incubated for 30 minutes at 37° C. 200 nM radioligand (radioligand 2[1,2] 3H-Deoxy D-Glucose in KRP buffer) were added and incubated for 5 minutes at room temperature. The supernatant was removed and cells were washed with 100 μL ice-cold KRP for two times each. 25 μL of Lysis buffer (1% Triton-X, 0.5N sodium hydroxide) were added and incubated at room temperature for 5 minutes. 75 μL scintillation solution (Microscint-20, PerkinElmer) were added and the plates were shaken for 1 minute. The plates were incubated for 3 h at room temperature and the counts were determined by using a Wallace MicroBeta counter (60 seconds per well).

Structure (SMILES) | IC50 (GLUT2) | IC50 (GLUT1 [1]) | IC50 (GLUT1 [2])
COc1cc(C(=O)Nc2c(C)nn(Cc3ccc(C#N)cc3)c2C)c2ccccc2n1 [Example 15, N-[1-(4-cyanobenzyl)-3,5-dimethyl-1H-pyrazol-4-yl]-2-methoxyquinoline-4-carboxamide] | 85400 nM | 11.6 nM | 
Cc1c(NC(=O)c2cc(C(N)=O)nc3ccccc23)c(C(F)(F)F)nn1Cc1ccc(C#N)cc1 [Example 126, N^4-[1-(4-cyanobenzyl)-5-methyl-3-(trifluoromethyl)-1H-pyrazol-4-yl]quinoline-2,4-dicarboxamide] | 85400 nM | 4.7 nM | 15.4 nM
Cc1nn(Cc2ccc(C#N)cn2)c(C)c1NC(=O)c1cc(C(N)=O)nc2cccc(F)c12 [Example 352, N^4-{1-[(5-cyanopyridin-2-yl)methyl]-3,5-dimethyl-1H-pyrazol-4-yl}-5-fluoroquinoline-2,4-dicarboxamide] | 45100 nM | 2.5 nM | 
Cc1nn(Cc2ccc(CN(C)C)cc2)c(C)c1NC(=O)c1cc(C(N)=O)nc2cc(F)ccc12 [Example 388, N^4-(1-{4-[(dimethylamino)methyl]benzyl}-3,5-dimethyl-1H-pyrazol-4-yl)-7-fluoroquinoline-2,4-dicarboxamide] | 51200 nM | 108 nM | 
CNC(=O)c1nc(Cn2nc(C(F)(F)F)c(NC(=O)c3cc(C(N)=O)nc4cc(F)c(Cl)cc34)c2C)no1 [Example 1558] | 51200 nM | 11.9 nM | 

These reach a lower IC50 (GLUT2). Values come first.

IC50 (GLUT2) | IC50 (GLUT1 [1]) | IC50 (GLUT1 [2]) | Structure (SMILES)
36100 nM | 64.1 nM |  | CCc1noc(Cn2nc(C)c(NC(=O)c3cc(C(N)=O)nc4ccccc34)c2C)n1 [Example 1571]
18400 nM | 10 nM |  | CCS(=O)(=O)N1CCC(Cn2nc(C)c(NC(=O)c3cc(C(N)=O)nc4cc(F)c(Cl)cc34)c2C)CC1 [Example 415, 6-chloro-N^4-(1-{[1-(ethylsulfonyl)piperidin-4-yl]methyl}-3,5-dimethyl-1H-pyrazol-4-yl)-7-fluoroquinoline-2,4-dicarboxamide]
